Reference: the NIST ThermoML archive (doi:10.1016/j.fluid.2012.08.016)

Assay: xn = mol fraction of the nth substance listed
Conditions: Liquid, Vibrating tube method, x2 = 0.667

C[N+](C)(C)CCO.[Cl-] [choline chloride] + OCC(O)CO
mass density [kg/m3]
Conditions	298.15 K	303.15 K	308.15 K	313.15 K	318.15 K	323.15 K
100 kPa	1192.1	1189.2	1186.2	1183.4	1180.5	1177.7
5000 kPa	1193.6	1190.7	1187.7	1184.9	1182	1179.2
10000 kPa	1195	1192.1	1189.2	1186.3	1183.5	1180.6
15000 kPa	1196.3	1193.5	1190.6	1187.7	1184.9	1182.1
20000 kPa	1197.7	1194.8	1192	1189.1	1186.3	1183.5
25000 kPa	1199.1	1196.2	1193.3	1190.5	1187.7	1184.9
30000 kPa	1200.4	1197.6	1194.7	1191.9	1189.1	1186.3
35000 kPa	1201.7	1198.9	1196	1193.3	1190.4	1187.7
40000 kPa	1203	1200.2	1197.4	1194.6	1191.8	1189.1
45000 kPa	1204.3	1201.5	1198.7	1195.9	1193.1	1190.4
50000 kPa	1205.6	1202.8	1200	1197.2	1194.4	1191.7
